Counter-ions that a name gives are not always drawn.
How the values were obtained:
[1] = tested on: A549; test: Cell viability assay, 3D hanging drop cell culture (CellTiter GLO 3D); assay type: cell-based; conditions: Homo sapiens; A549, 3D hanging drop cell culture, 72 h; ±SD, N = 2; read-out: IC50 antitumor activity A549 3D
Experimental: (§1) Compounds are diluted 1:3. 500 nL (for 2 D cell culture) or 400 nL (for 3 D cell culture) of compound were transferred from mother plate to test plate by using Mosquito (TTP labtech). DMSO percentage in test concentrations was 0.5 − 1.0%. Starting concentration of the test compounds and standard compound doxorubicin was 50 µM (2 D cell culture) or 100 µM (3 D cell culture).
(§2) Cells were grown in 96 well Perfecta 3 D hanging drop plates 5000 cell/well for 4 days until spheres were formed (and checked under the microscope). After sphere formation cells were treated with compounds followed by 72 h incubation. Cell viability assay was performed according to the manufacturer’s instruction, using CellTiter GLO 3 D for 3 D cell culture (Promega); cell incubation was 5 min on the shaker followed by 25 min incubation in the dark. Plates were read using PE EnVision luminescence.
(§3) Calculation of IC50 data, curves and QC analysis is made by using Excel tools and GraphPadPrism software (La Jolla, CA), v. […] QC criteria parameters (Z', S:B, R2, HillSlope) were checked for every IC50 curve.

[2] = tested on: HCC827; test: as above; assay type: cell-based; conditions: Homo sapiens, read-out: IC50 antitumor activity HCC827 3D
Experimental: as §1, §2, §3

[3] = tested on: NCI-H358; test: as above; assay type: cell-based; conditions: Homo sapiens, read-out: IC50 antitumor activity NCI-H358 3D
Experimental: as §1, §2, §3

[4] = tested on: A549; test: BrdU proliferation assay, 2D cell culture; assay type: cell-based; conditions: Homo sapiens, A549, 2D cell culture, ±SD, N = 2
Experimental: (§4) Cells were grown in 96 well cell star polystyrene plates. 10,000 cells/well were seeded in wells 4 h prior the treatment with different compounds concentrations and incubated for 72 h. A cell viability assay was performed according to the manufacturer’s instruction, using CellTiter 96 aqueous solution, MTS kit (Promega, Madison, WI, USA). After 0.5–2 h of cell incubation with MTS in 2 D cell culture, the plates were read using PE EnVision absorbance at 490 nm. The results for each of tested compounds are reported as growth percentages from two independent concentrations curves compared with the untreated control cells after drug exposure. Since we prefer homogeneous assays (mix and read procedures) and therefore MTS is more practical (one step less than MTT). MTS is more sensitive and accurate in comparison with MTT assay.
(§5) Proliferation assay was performed using Cell Proliferation ELISA, BrdU (Sigma, St. Louis, MO, USA). Briefly, 48 h hours after compound addition, 10 µM of BrdU was added to each well and incubated for following 24 h. After incubation, single cell suspension was made for 3 D cell culture in the new 96 well plate. Plates were centrifuged and supernatants were removed from each plate (for 2 D and 3 D cell culture) followed by 60 min incubation at 60° C. The rest of the proliferation assay was performed according to the manufacturer instructions.
(§6) Calculation of IC50 data, curves and QC analysis is made by using Excel tools and GraphPadPrism software (La Jolla, CA), v. 5.03. In brief, individual concentration–effect curves are generated by plotting the logarithm of the tested concentration of tested compounds (X) versus corresponding percent inhibition values (Y) using least squares (ordinary) fit. […] QC criteria parameters (Z', S:B, R2, HillSlope) were checked for every IC50 curve.

[5] = tested on: A549; test: MTS cell viability (cytotoxicity) assay, 2D cell culture; assay type: cell-based; conditions: Homo sapiens, A549, 2D cell culture, 72 h, ±SD, N = 2, read-out: IC50 antitumor activity A549 2D
Experimental: as §1
as §4, with “The results for each of tested compounds are reported as growth percentages from two independent concentrations curves compared with the untreated control cells after drug exposure.” left out
as §3

[6] = tested on: HCC827; test: as above; assay type: cell-based; conditions: Homo sapiens, read-out: IC50 antitumor activity HCC827 2D
Experimental: as §1
as §4, with “The results for each of tested compounds are reported as growth percentages from two independent concentrations curves compared with the untreated control cells after drug exposure.” left out
as §3

[7] = tested on: NCI-H358; test: as above; assay type: cell-based; conditions: Homo sapiens, read-out: IC50 antitumor activity NCI-H358 2D
Experimental: as §1
as §4, with “The results for each of tested compounds are reported as growth percentages from two independent concentrations curves compared with the untreated control cells after drug exposure.” left out
as §3

[8] = tested on: HCC827; test: BrdU proliferation assay, 2D cell culture; assay type: cell-based; conditions: Homo sapiens, HCC827, 2D cell culture, ±SD, N = 2
Experimental: as §4, with “The results for each of tested compounds are reported as growth percentages from two independent concentrations curves compared with the untreated control cells after drug exposure.” left out
as §5, §3

[9] = tested on: NCI-H358; test: BrdU proliferation assay, 2D cell culture; assay type: cell-based; conditions: Homo sapiens, NCI-H358, 2D cell culture, ±SD, N = 2
Experimental: as §4, with “The results for each of tested compounds are reported as growth percentages from two independent concentrations curves compared with the untreated control cells after drug exposure.” left out
as §5, §3

[10] = tested on: A549; test: BrdU proliferation assay, 3D cell culture; assay type: cell-based; conditions: Homo sapiens, A549, 3D cell culture, ±SD, N = 2
Experimental: as §2, with “luminescence. The results for each of tested compounds are reported as growth percentages from two independent concentrations curves compared with the untreated control cells after drug exposure.” for “luminescence.”
as §5, §6

[11] = tested on: NCI-H358; test: BrdU proliferation assay, 3D cell culture; assay type: cell-based; conditions: Homo sapiens, NCI-H358, 3D cell culture, ±SD, N = 2
Experimental: as §2, with “luminescence. The results for each of tested compounds are reported as growth percentages from two independent concentrations curves compared with the untreated control cells after drug exposure.” for “luminescence.”
as §5, §6

[12] = tested on: HCC827; test: BrdU proliferation assay, 3D cell culture; assay type: cell-based; conditions: Homo sapiens, HCC827, 3D cell culture, ±SD, N = 2
Experimental: as §2, §5, §3

[13] = HCC827, 3D hanging drop cell culture, 72 h, ±SD, N = 2
[14] = NCI-H358, 3D hanging drop cell culture, 72 h, ±SD, N = 2
[15] = HCC827, 2D cell culture, 72 h, MTS, ±SD, N = 2
[16] = NCI-H358, 2D cell culture, 72 h, MTS, ±SD, N = 2

Compound | IC50 [1] | IC50 [2, 13] | IC50 [3, 14] | IC50 [4] | IC50 [5] | IC50 [6, 15] | IC50 [7, 16] | melting point | IC50 [8] | IC50 [9] | IC50 [10] | IC50 [11] | IC50 [12] | IC50 ([2]; HCC827, 72 h) | IC50 ([3]; NCI-H358, 72 h) | IC50 ([6]; HCC827, 72 h) | IC50 ([7]; NCI-H358, 72 h)
Cl.c1ccc(-c2nc3ccc(C4=NCCCN4)cc3s2)cc1 [Compound 5a, 2-Phenyl-6–(3,4,5,6-tetrahydropyrimidin-1-ium-2-yl)benzothiazole chloride] | > 100 µM | > 100 µM | > 100 µM | > 50 µM | > 50 µM | > 50 µM | > 50 µM | 272 to 275 °C | > 50 µM | > 50 µM | > 100 µM | > 100 µM | > 100 µM |  |  |  | 
Cl.c1ccc2c(-c3nc4ccc(C5=NCCCN5)cc4s3)c[nH]c2c1 [Compound 5f, 2-(1H-Indol-3-yl)-6–(3,4,5,6-tetrahydropyrimidin-1-ium-2-yl)benzothiazole chloride] | > 100 µM | > 100 µM | > 100 µM | > 50 µM | > 50 µM | > 50 µM | > 50 µM | > 300 °C | > 50 µM | > 50 µM | > 100 µM | > 100 µM | > 100 µM |  |  |  | 
COc1cccc2c1C(=O)c1c(O)c3c(c(O)c1C2=O)C[C@@](O)(C(=O)CO)C[C@@H]3O[C@H]1C[C@H](N)[C@H](O)[C@H](C)O1 [Doxorubicin, reference compound] | 5 ± 0.26 µM | 0.78 ± 0.08 µM | 0.25 ± 0.03 µM | 0.06 ± 0.01 µM | 2 ± 0.23 µM | 0.39 ± 0.05 µM | 0.11 ± 0.01 µM |  | 0.02 µM | 0.04 µM | 0.39 ± 0.02 µM | 0.34 ± 0.36 µM | 1.03 ± 0.71 µM |  |  |  | 
CN[C@@H]1C[C@H]2O[C@@](C)([C@@H]1OC)n1c3ccccc3c3c4c(c5c6ccccc6n2c5c31)C(=O)NC4 [Staurosporine, reference compound] |  |  |  |  |  | 0.15 ± 0.01 µM |  |  | 0.06 ± 0.01 µM |  |  |  | 0.04 ± 0.01 µM |  |  |  | 
COc1cc2c(Nc3ccc(Br)cc3F)ncnc2cc1OCC1CCN(C)CC1 [Vandetanib, reference compound] | > 50 µM | 2 ± 0.11 µM | 0.3 ± 0.02 µM | > 25 µM | > 25 µM | 0.81 ± 0.05 µM | 3 ± 0.85 µM |  | 2.82 ± 1.98 µM | 1 ± 0.28 µM | 1.25 ± 2.82 µM | 1.91 ± 0.09 µM | 0.87 ± 1.15 µM |  |  |  | 
c1ccc2c(-c3nc4ccc(C5=NCCCN5)cc4[nH]3)c[nH]c2c1 (as salt: chloride) [Compound 6e, 2-(1H-Indol-3-yl)-5(6)–(3,4,5,6-tetrahydropyrimidin-1-ium-2-yl)benzimidazole chloride] |  |  |  |  |  |  |  | > 300 °C |  |  |  |  |  |  |  |  | 
Cl.c1ccc2c(c1)cc(-c1nc3ccc(C4=NCCCN4)cc3s1)c1ccccc12 [Compound 5i, 2-(Phenanthrene-9-yl)-6–(3,4,5,6-tetrahydropyrimidin-1-ium-2-yl)benzothiazole chloride] | > 100 µM |  |  | > 50 µM | > 50 µM |  |  | 196 to 200 °C | > 50 µM | > 50 µM | > 100 µM | > 100 µM | > 100 µM | > 100 µM | > 100 µM | > 50 µM | > 50 µM

Source: article PMC7801115, “Preclinical in vitro screening of newly synthesised amidino substituted benzimidazoles and benzothiazoles” (Journal of Enzyme Inhibition and Medicinal Chemistry, 2021)
